What was measured:
[1] = tested on: Mus musculus; assay: Ex-vivo inhibition of PrCP in heat inactivated 100% plasma of C57 mouse assessed as target engagement at 100 mg/kg, po after 20 hrs by FRET analysis; format: functional
[2] = Drug uptake in C57 mouse brain at 100 mg/kg, po after 20 hrs by LC/MS analysis; format: ADME, organism-based; set-up: dose 100 mg/kg, route oral; conditions: read-out: Drug uptake
[3] = Ratio of apparent permeability from basolateral to apical side over apical to basolateral side in […] LLC cells expressing human MDR1 at 5 uM; format: ADME, cell-based
[4] = Apparent permeability across pig LLC-PK1 cells at 5 uM; format: ADME, cell-based, Sus scrofa
[5] = tested on: Mus musculus; assay: Plasma shift, ratio of Ki for PrCP in heat inactivated 100% plasma of po dosed mouse to Ki for po dosed mouse PrCP in the absence of plasma; format: functional
[6] = target: Mus musculus; assay: Ex-vivo inhibition of PrCP in heat inactivated 100% plasma of po dosed mouse by FRET analysis; format: functional, organism-based
[7] = tested on: Mus musculus; assay: Ex-vivo inhibition of PrCP in heat inactivated 100% plasma of C57 mouse assessed as target engagement at 100 mg/kg, po after 20 hrs calculated as [cmpd]plasma/([cmpd]plasma + Ki (heat inactivated plasma))x100; format: functional
[8] = Drug uptake in C57 mouse plasma at 100 mg/kg, po after 20 hrs by LC/MS analysis; format: ADME, organism-based; set-up: dose 100 mg/kg, route oral
[9] = target: Mus musculus; assay: Ex-vivo inhibition of po dosed mouse PrCP in the absence of plasma by FRET analysis; format: functional, organism-based
[10] = Ratio of drug level in brain to plasma in C57 mouse at 100 mg/kg, po after 20 hrs by LC/MS analysis; format: ADME, organism-based; set-up: dose 100 mg/kg, route oral; conditions: read-out: BPR
[11] = Ratio of apparent permeability from basolateral to apical side over apical to basolateral side in […] LLC cells expressing […] MDR1a at 5 uM; format: ADME, cell-based
[12] = target: Mus musculus; assay: Ex-vivo inhibition of PrCP in heat inactivated 25% plasma of po dosed mouse by FRET analysis; format: functional, organism-based
[13] = tested on: Mus musculus; assay: Ex-vivo inhibition of PrCP in heat inactivated 100% plasma of C57 mouse assessed as target engagement at 30 mg/kg, po after 20 hrs calculated as [cmpd]plasma/([cmpd]plasma + Ki (heat inactivated plasma))x100; format: functional
[14] = Clearance in mouse at 0.5 mg/kg, iv and 1 mg/kg, po; format: ADME, organism-based; conditions: in vivo
[15] = Metabolic stability in mouse liver microsomes after 30 mins by LC/MS analysis; format: ADME, Microsome; conditions: read-out: Stability
[16] = Half life in mouse at 0.5 mg/kg, iv and 1 mg/kg, po; format: ADME, organism-based; conditions: in vivo
[17] = Oral bioavailability in mouse at 1 mg/kg; format: ADME, organism-based; conditions: in vivo
[18] = Volume of distribution in mouse at 0.5 mg/kg, iv and 1 mg/kg, po; format: ADME, organism-based; conditions: in vivo
[19] = Plasma protein binding in 10% mouse plasma assessed as percentage unbound; format: ADME, cell-free
[20] = Drug uptake in C57 mouse brain at 30 mg/kg, po after 20 hrs by LC/MS analysis; format: ADME, organism-based; set-up: dose 30 mg/kg, route oral; conditions: read-out: Drug uptake
[21] = Apparent permeability across pig LLC-PK1 cells at 1 uM; format: ADME, cell-based, Sus scrofa
[22] = Metabolic stability in human liver microsomes after 30 mins by LC/MS analysis; format: ADME, Microsome; conditions: read-out: Stability
[23] = target: T1, Lysosomal Pro-X carboxypeptidase (Mus musculus, UniProt Q7TMR0); assay: Inhibition of mouse PrCP
T1 sequence (Q7TMR0 whole entry): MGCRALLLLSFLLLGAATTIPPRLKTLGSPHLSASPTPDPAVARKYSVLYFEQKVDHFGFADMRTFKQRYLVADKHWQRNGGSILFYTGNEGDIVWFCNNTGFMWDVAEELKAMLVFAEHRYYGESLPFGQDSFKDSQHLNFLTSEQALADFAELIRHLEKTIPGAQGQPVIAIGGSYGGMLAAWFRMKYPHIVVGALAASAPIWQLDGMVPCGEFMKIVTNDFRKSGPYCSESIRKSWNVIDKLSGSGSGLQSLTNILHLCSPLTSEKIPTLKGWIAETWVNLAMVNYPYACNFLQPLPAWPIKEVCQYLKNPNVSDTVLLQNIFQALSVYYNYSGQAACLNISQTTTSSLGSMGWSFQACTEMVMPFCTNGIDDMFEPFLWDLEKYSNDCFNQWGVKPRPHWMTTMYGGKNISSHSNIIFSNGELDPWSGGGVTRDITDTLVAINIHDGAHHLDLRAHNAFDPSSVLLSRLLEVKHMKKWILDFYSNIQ

[24] = tested on: Mus musculus; assay: Dose normalized AUC in mouse at 1 mg/kg, po; format: ADME, organism-based; set-up: dose 1 mg/kg, route oral; conditions: in vivo
[25] = Drug uptake in C57 mouse plasma at 30 mg/kg, po after 20 hrs by LC/MS analysis; format: ADME, organism-based; set-up: dose 30 mg/kg, route oral
[26] = tested on: Mus musculus; assay: Ex-vivo inhibition of PrCP in heat inactivated 100% plasma of C57 mouse assessed as target engagement at 30 mg/kg, po after 20 hrs by FRET analysis; format: functional
[27] = Ratio of drug level in brain to plasma in C57 mouse at 30 mg/kg, po after 20 hrs by LC/MS analysis; format: ADME, organism-based; set-up: dose 30 mg/kg, route oral; conditions: read-out: BPR
[28] = Plasma protein binding in 10% human plasma assessed as percentage unbound; format: ADME, cell-free
[29] = tested on: Mus musculus; assay: Ex-vivo inhibition of PrCP in heat inactivated 100% plasma of C57 mouse assessed as target engagement at 80 mg/kg, po after 20 hrs by FRET analysis; format: functional
[30] = Drug uptake in C57 mouse brain at 80 mg/kg, po after 20 hrs by LC/MS analysis; format: ADME, organism-based; set-up: dose 80 mg/kg, route oral; conditions: read-out: Drug uptake
[31] = tested on: Mus musculus; assay: Ex-vivo inhibition of PrCP in heat inactivated 100% plasma of C57 mouse assessed as target engagement at 80 mg/kg, po after 20 hrs calculated as [cmpd]plasma/([cmpd]plasma + Ki (heat inactivated plasma))x100; format: functional
[32] = Ratio of drug level in brain to plasma in C57 mouse at 80 mg/kg, po after 20 hrs by LC/MS analysis; format: ADME, organism-based; set-up: dose 80 mg/kg, route oral; conditions: read-out: BPR
[33] = Drug uptake in C57 mouse plasma at 80 mg/kg, po after 20 hrs by LC/MS analysis; format: ADME, organism-based; set-up: dose 80 mg/kg, route oral
[34] = Drug uptake in C57 mouse brain at 10 mg/kg, po after 20 hrs by LC/MS analysis; format: ADME, organism-based; set-up: dose 10 mg/kg, route oral; conditions: read-out: Drug uptake
[35] = tested on: Mus musculus; assay: Ex-vivo inhibition of PrCP in heat inactivated 100% plasma of C57 mouse assessed as target engagement at 10 mg/kg, po after 20 hrs by FRET analysis; format: functional
[36] = Ratio of drug level in brain to plasma in C57 mouse at 10 mg/kg, po after 20 hrs by LC/MS analysis; format: ADME, organism-based; set-up: dose 10 mg/kg, route oral; conditions: read-out: BPR
[37] = Drug uptake in C57 mouse plasma at 10 mg/kg, po after 20 hrs by LC/MS analysis; format: ADME, organism-based; set-up: dose 10 mg/kg, route oral
[38] = tested on: Mus musculus; assay: Ex-vivo inhibition of PrCP in heat inactivated 100% plasma of C57 mouse assessed as target engagement at 10 mg/kg, po after 20 hrs calculated as [cmpd]plasma/([cmpd]plasma + Ki (heat inactivated plasma))x100; format: functional
[39] = Oral bioavailability in mouse at 10 mg/kg; format: ADME, organism-based; conditions: in vivo
[40] = Volume of distribution in mouse at 2 mg/kg, iv and 10 mg/kg, po; format: ADME, organism-based; conditions: in vivo
[41] = tested on: Mus musculus; assay: Dose normalized AUC in mouse at 10 mg/kg, po; format: ADME, organism-based; set-up: dose 10 mg/kg, route oral; conditions: in vivo
[42] = Clearance in mouse at 2 mg/kg, iv and 10 mg/kg, po; format: ADME, organism-based; conditions: in vivo
[43] = Half life in mouse at 2 mg/kg, iv and 10 mg/kg, po; format: ADME, organism-based; conditions: in vivo

Compound	concentration at 20 h [2] [nM]	Ki [6] [nM]	concentration at 20 h [8] [nM]	Ki [9] [nM]	Kp at 20 h [10]	Ki [12] [nM]	clearance [14] [mL/min/kg]	remaining at 0.5 h [15] [%]	half-life [16] [h]	bioavailability [17] [%]	Vd [18] [L/kg]	fraction unbound [19]	Papp at 1 µM [21] [×10⁻⁶ cm/s]	remaining at 0.5 h [22] [%]	IC50 [23] [nM]	AUC/dose [24] [µM·kg·h/mg]	fraction unbound [28]	inhibition in vivo at 100 mg/kg [1] [%]	inhibition in vivo at 100 mg/kg [7] [%]	further results
Cc1cc(C2CCN(C(=O)[C@@H]3CN(C(C)(C)C)C[C@H]3c3ccc(F)cc3F)CC2)n(-c2cc(Cl)ccc2Cl)n1	–	0.9	–	0.4	–	0.5	48	43	2.9	31	13	0.17	26.9	30	0.4	0.19	0.11	–	–	inhibition in vivo at 30 mg/kg [13]: 99.8%; concentration at 20 h [20]: 698 nM; concentration at 20 h [25]: 547 nM; inhibition in vivo at 30 mg/kg [26]: 97.7%; Kp at 20 h [27]: 1.35
Cc1cc(C2CCN(C(=O)[C@@H]3CN(C(C)(C)C)C[C@H]3c3ccc(F)cc3F)CC2)n(-c2ccc(F)c(F)c2)n1	–	18.3	–	6.4	–	9.3	71	52	1.9	46	13	0.16	28	39	9.1	0.2	0.25	–	–	inhibition in vivo at 80 mg/kg [29]: 99.4%; concentration at 20 h [30]: 1180 nM; inhibition in vivo at 80 mg/kg [31]: 99.1%; Kp at 20 h [32]: 0.63; concentration at 20 h [33]: 1910 nM
CC(C)(C)N1C[C@@H](C(=O)N2CCC(c3ccnn3-c3ccc(F)c(Cl)c3)CC2)[C@H](c2ccc(F)cc2F)C1	801	1.4	1800	0.5	0.46	0.7	121	3	3.1	18	22	0.16	28.8	4	0.3	0.05	0.18	99.9	99.9	concentration at 20 h [34]: 21 nM; inhibition in vivo at 10 mg/kg [35]: 99.5%; Kp at 20 h [36]: 0.11; concentration at 20 h [37]: 196 nM; inhibition in vivo at 10 mg/kg [38]: 99.3%

More lines, in order of falling Ki [6], values ahead:

concentration at 20 h [2] [nM]	Ki [6] [nM]	concentration at 20 h [8] [nM]	Ki [9] [nM]	Kp at 20 h [10]	Ki [12] [nM]	clearance [14] [mL/min/kg]	remaining at 0.5 h [15] [%]	half-life [16] [h]	bioavailability [17] [%]	Vd [18] [L/kg]	fraction unbound [19]	Papp at 1 µM [21] [×10⁻⁶ cm/s]	remaining at 0.5 h [22] [%]	IC50 [23] [nM]	AUC/dose [24] [µM·kg·h/mg]	fraction unbound [28]	Compound	inhibition in vivo at 100 mg/kg [1] [%]	inhibition in vivo at 100 mg/kg [7] [%]	further results
757	16.3	3120	0.7	0.24	4.6	–	–	–	–	–	–	–	–	–	–	–	C[C@@H](c1ccc(-c2ccccc2)cc1)[C@H](NC(=O)C(C)(C)N)C(=O)N1CCC[C@H]1c1nc2cc(Cl)c(Cl)cc2[nH]1	97.2	99.5	Ratio [3]: 8; Papp at 5 µM [4]: 2.3 ×10⁻⁶ cm/s; Ratio Ki [5]: 23.3; Ratio [11]: 4.2
–	1.4	–	1	–	1.1	–	22	–	–	–	0.13	–	11	10	–	0.16	Cc1nc(C2CCN(C(=O)[C@@H]3CN(C(C)(C)C)C[C@H]3c3ccc(F)cc3F)CC2)n(-c2ccc(Cl)c(C)c2)n1	–	–	bioavailability [39]: 20%; Vd [40]: 17 L/kg; AUC/dose [41]: 0.05 µM·kg·h/mg; clearance [42]: 128 mL/min/kg; half-life [43]: 1.8 h

From ChEMBL document CHEMBL2021890, “A new class of prolylcarboxypeptidase inhibitors, part 1: discovery and evaluation” (Bioorg Med Chem Lett, 2012)
